Measurements as given in patent US5962447A, “Benzoxazines for enhancing synaptic response” (The Regents of the University of California, priority 1998, dated 1999).

Legend:
[1] = tested on: AMPA receptors; assay: In vitro physiological testing: field EPSPs in rat hippocampal slices (CA1); type: cell-based, rat (Sprague-Dawley); conditions: for +25% Amplitude (estimated concentration required to increase the amplitude of the EPSP to 25% above baseline) / +50% Half-Width (estimated concentration required to increase the width of the EPSP at half-height by 50%): rat hippocampal slice, 35° C., about 15 min perfusion, estimated by interpolation in most cases, extrapolation for others; for in vitro enhancement by rotational restriction vs. corresponding rotomer: figure: +50% half-width, vs. substituted benzoyl piperidine rotomers
Experimental: In Vitro Physiological Testing
The physiological effects of the compounds of this invention were determined in vitro with slices of rat hippocampus by measuring excitatory responses (field EPSPs) in hippocampal slices maintained in a recording chamber continuously perfused with artificial cerebrospinal fluid (ACSF). During a 15-30 minute interval, the perfusion medium was switched to one containing various concentrations of the test compounds. Responses collected immediately before and at the end of drug perfusion were superimposed in order to calculate both the percent increase in EPSP amplitude and percent increase in the width of the response at one-half the peak height (half-width).
To conduct these tests, the hippocampus was removed from anesthetized, 2 month old Sprague-Dawley rats, and in vitro slices (400 micrometers thick) were prepared and maintained in an interface chamber at 35° C. using conventional techniques. this is the procedure used by Dunwiddie and Lynch, J. Physiol. […] A bipolar nichrome stimulating electrode was positioned in the dendritic layer (stratum radiatum) of the hippocampal subfield CA1 close to the border of subfield CA3.
Current pulses (0.1 msec) through the stimulating electrode activated a population of the Schaffer-commissural (SC) fibers which arise from neurons in the subdivision CA3 and terminate in synapses on the dendrites of CA1 neurons. Activation of these synapses causes them to release the transmitter glutamate. Glutamate binds to the post-synaptic AMPA receptors which then transiently open an associated ion channel and permit a sodium current to enter the postsynaptic cell. This current results in a voltage in the extracellular space (the field excitatory post-synaptic potential or field "EPSP") which is recorded by a high impedance recording electrode positioned in the middle of the stratum radiatum of CA1.
For the experiments summarized in the table below, the intensity of the stimulation current was adjusted to produce half-maximal EPSPs (typically about 1.5-2.0 mV). Paired stimulation pulses were given every 40 seconds with an interpulse interval of 200 msec. The field EPSPs of the second response were digitized and analyzed to determine amplitude, half-width, and response area. If the responses were stable for 15-30 minutes (baseline), test compounds were added to the perfusion lines for a period of about 15 minutes. The perfusion was then changed back to regular ACSF.
Paired-pulse stimulation was used since stimulation of the SC fibers in part activates interneurons which generate an inhibitory postsynaptic potential (IPSP) in the pyramidal cells of CA1. This feed-forward IPSP typically sets in after the EPSP reaches its peak. The feed-forward IPSP accelerates the repolarization and shortens the decay phase of the EPSP, and thus could partially mask the effects of the test compounds. One of the relevant features of the feed-forward IPSP is that it cannot be reactivated for several hundred milliseconds following a stimulation pulse. This phenomenon can be employed to advantage to eliminate IPSP by delivering paired pulses separated by 200 milliseconds and using the second ("primed") response for data analysis.
The compounds of the invention were assayed in the physiological test system described above for the generation of data presented in the table below. […] Values have been estimated by interpolation in most cases, but by extrapolation from determined values for others.

[2] = tested on: AMPA receptor; assay: In vitro hippocampal patch preparation, effect on AMPA receptor function; type: cell-based; conditions: Chiralpak AD, hexane/50% isopropanol
Experimental: This isomer was determined to be the (+)-enantiomer.

[3] = Enhancing memory in rats, 8-arm radial maze learning paradigm; type: in vivo, rat; conditions: for minimal effective dose: Rattus norvegicus, rats, read-out: Behavioral Dose (threshold dose for enhancing memory); for in vivo enhancement by rotational restriction vs. corresponding rotomer: figure: threshold dose
[4] = metabolite of aniracetam; cited from earlier work

Structure (SMILES)	+25% Amplitude (estimated concentration required to increase the amplitude of the EPSP to 25% above baseline) [1] [mM]	+50% Half-Width (estimated concentration required to increase the width of the EPSP at half-height by 50%) [1] [mM]	other results
COc1ccc2c(c1)C(=O)N1CCCC1(C)O2 (racemic) [Compound VIII, (R,S)-7-Methoxy-3a-methyl-2,3-dihydro-1H-pyrrolo[2,1-b][1,3]benzoxazine-9-one]	> 0.3	0.4	
O=C1c2cc3c(cc2OC2CCCN12)OCCO3 (single isomer, unassigned) [second eluting enantiomer]			activity of second eluting enantiomer relative to first eluting enantiomer (effect on AMPA receptor function) [2]: at least 10 -fold
O=C1c2cc3nccnc3cc2OC2CCCCN12 (racemic) [Compound VII, (R,S)-Pyrazino[2,3-g]-1,2,3,4-tetrahydropyrido[2,1-b] [1,3] benzoxazine-12(4aH)-one]	0.4	0.3	
COc1ccc2c(c1)OC1CCCN1C2=O (racemic) [Compound IV, (R,S)-6-Methoxy-2,3-dihydro-1H-pyrrolo[2,1-b][1,3]benzoxazine-9(3aH)-one]	> 1	0.4	
O=C1c2cc3c(cc2OC2CCCN12)OCO3 (racemic) [Compound I, (R,S)-1,3-Dioxolo[4,5-g]-2,3-dihydro-1H-pyrrolo[2,1-b][1,3]benzoxazine-10(3aH)-one]	0.1	0.05	minimal effective dose [3]: 1 mg/kg; in vivo enhancement by rotational restriction vs. corresponding rotomer [3]: marked enhancement; in vitro enhancement by rotational restriction vs. corresponding rotomer [1]: marked enhancement
O=C1c2cc3c(cc2OC2CCCN12)OCCO3 (racemic) [Compound III, (R,S)-1,4-Dioxan[2,3-g]-2,3-dihydro-1H-pyrrolo[2,1-b][1,3]benzoxazine-11(3aH)-one]	> 0.03	0.02	potency in the behavioral task vs. corresponding rotomer and other ampakines of WO 94/02475 [3]: ten times more potent; minimal effective dose [3]: 0.1 mg/kg; in vivo enhancement by rotational restriction vs. corresponding rotomer [3]: marked enhancement; in vitro enhancement by rotational restriction vs. corresponding rotomer [1]: marked enhancement
O=C1c2cc3nccnc3cc2OC2CCCN12 (racemic) [Compound VI, (R,S)-Pyrazino[2,3-g]-2,3-dihydro-1H-pyrrolo[2,1-b][1,3]benzoxazine-11(3aH)-one]	0.1	0.1	minimal effective dose [3]: 2 mg/kg; in vivo enhancement by rotational restriction vs. corresponding rotomer [3]: marked enhancement; in vitro enhancement by rotational restriction vs. corresponding rotomer [1]: marked enhancement
COc1ccc2c(c1)C(=O)N1CCCC1O2 (racemic) [Compound V, (R,S)-7-Methoxy-2,3-dihydro-1H-pyrrolo[2,1-b][1,3]benzoxazine-9(3aH)-one]	1	0.25	
COc1ccc(C(=O)NCCCC(=O)O)cc1 [anisoyl-GABA]			aniracetam-like effects [4]: no aniracetam-like effects
O=C1c2cc3c(cc2OC2CCCCN12)OCO3 (racemic) [Compound II, (R,S)-1,3-Dioxolo[4,5-g]-1,2,3,4-tetrahydropyrido[2,1-b][1,3]benzoxazine-11(4aH)-one]	0.3	0.2	
O=C1c2cc3c(cc2OC2CCCN12)OCO3 (single isomer, unassigned) [first eluting enantiomer]			activity of first eluting enantiomer relative to second eluting enantiomer (effect on EPSP) ([1]; Chiralcel OD, hexane/10% isopropanol, in vitro hippocampal slice): at least 10 -fold
